{"source": "patent US20050113443A1", "about": "“Modulation of airway inflammation in patients with cystic fibrosis and related diseases” (priority 2003, published 2005)", "key": {"[1]": {"tested_on": "C57BL/6 mice challenged intratracheally with mucoid P. aeruginosa (strain M57-15)", "assay": "Mouse model of chronic airway inflammation and infection of cystic fibrosis (mucoid P. aeruginosa entrapped in agarose beads)", "assay_type": "in vivo", "conditions": "vs vehicle controls", "text": "Chronic infections with mucoid P. aeruginosa tend to persist in patients with CF. In turn, chronic airway infection with mucoid P. aeruginosa is a major cause of morbidity and mortality among CF patients. In order to achieve chronic airway infections with P. aeruginosa in murine models, it is necessary to enmesh the bacteria with an immobilizing agent such as agar (Pediatr Pulmonol 30:413.; Lab Animals 36:291). This also provides an experimental mimic of the growth of P. aeruginosa as a biofilm, which appears to be its predominant state in the CF airway (Pediatr Pulmonol 30:413, 2000; Pediatr Res 22:698, 1987; Trends Microbiol 9:50, 2001). C57/B16 mice are used, as the inflammatory response to P. aeruginosa infection of this moderately susceptible strain is a fair mimic of that seen in CF patients (Pediatr Pulmonol 30:413). Indeed, in C57/B16 mice, agar bead delivery of P. aeruginosa leads to histopathological changes, including bronchiectasis, similar to those found in patients with CF (Pediatr Pulmonol 30:413, 2000). This chronic model allows for the characterization of the effects of LX analogues on chronic, ongoing airway infection and inflammation using a model that is highly relevant to, and a reasonable mimic of, the CF airway.\nModifications were made in a previously described model (van Heeckeren, A. M. etal Lab Anim 36, 291, 2002). 6-8 week old female C57BL/6 mice were immunized in the dermis of the ear with heat-killed P. aeruginosa (mucoid strain M57-15) in incomplete Freund's adjuvant 10 days prior to P. aeruginosalagar bead challenge. Mice were challenged intratracheally (non-traumatically as previously described, Wills-Karp, M. et al. Science 282, 2258, 1998) with 3×10^4 P. aeruginosa (mucoid strain M57-15) entrapped in […] agarose beads. Beginning 1 day prior to such challenge, mice were treated with an LXA4 analogue (15-epi-16-[p-fluorophenoxy LXA4] methyl ester) by oral administration, through placing 10 μg/ml of the analogue in the drinking water (Gewirtz, A. T. et al. J Immunol 168, 5260, 2002), supplemented with a single daily intravenous dose of 1 μg by tail vein. Controls received trace volumes (identical to that administered to lipoxin analogue-treated mice) of ethanol in drinking water and intravenously. Mice were weighed daily. Five days after P. aeruginosa/agar bead challenge, mice were sacrificed, BAL was performed, and lungs were harvested for measurement of lung Pseudomonas burden and myeloperoxidase by standard techniques (van Heeckeren, A. M. et al Lab Anim 36, 291, 2002; Wills-Karp, M. et al. Science 282, 2258, 1998; Andrews, P. C. et al. Anal Biochem 127, 346, 1982). Animal care was provided in accordance with National Institutes of Health guidelines. This was done in order to model an additional immunological feature of individuals with cystic fibrosis and P. aeruginosa colonization/infection: potent adaptive immune responses, marked by anti-pseudomonal antibodies and T cells reactive with pseudomonal proteins.\nC57/B16 mice were challenged intratracheally (non-traumatically as previously described [Science 282:2258, 1998; Nature Immunol 1:221,2000]) with 3×10^4 P. aeruginosa (mucoid strain M57-15) entrapped in agar beads (70-200 uM). […]"}, "[2]": {"tested_on": "primary human bronchial epithelial cells", "assay": "P. aeruginosa-induced IL-8 secretion by primary human bronchial epithelial cells (ELISA)", "assay_type": "cell-based", "conditions": "cells treated 2 h with analogue (nanomolar concentrations), stimulated 1 h with 3×10^7 cfu P. aeruginosa PA01, supernatants after 4 more hours, vs vehicle (0.01% ethanol), FIG. 2, P<0.002", "method": "We further examined whether LX analogues were able to inhibit P. aeruginosa-induced IL 8 production from primary human bronchial epithelial cells. Primary bronchial epithelial cells from non-smokers obtained from Clonetics/Cambrex were grown until subconfluent, treated for 2 h with LXA4 analogue or vehicle control (0.01% ethanol), stimulated for 1 h with 3×10^7 cfu of P. aeruginosa strain PA01, and subsequently washed. Cell-free supernatants were harvested after 4 more hours of incubation, and analyzed by ELISA for IL-8 secretion. For this purpose we used the metabolically stable analog 15-epi-16-(p-fluorophenoxy) LXA4 methyl ester, prepared according to Example 2. […] Primary human bronchial epithelial cells were pretreated with an LXA4 analogue (15-epi-16-[p-fluorophenoxy LXA4] methyl ester) or vehicle control and subsequently stimulated with P. aeruginosa strain PA01. IL-8 was measured in cell-free supernatants. Mean IL-8 production was 1620±116 pg/ml in vehicle control cultures."}}}
{"molecule": "COC(=O)CCC[C@H](O)[C@H](O)/C=C/C=C/C=C\\C=C\\[C@H](O)COc1ccc(F)cc1", "note": "[(5S, 6R, 15S)-trihydroxy-16-(4-fluorophenoxy)-hexadeca-(7E, 9E, 11Z,13E)-tetraenoic acid methyl ester]", "values": [{"measurement": "weight loss", "setting": "[1]; 10 μg/ml in drinking water plus 1 μg i.v. daily from 1 day before challenge, weighed daily, FIG. 3", "value": "less weight loss"}, {"measurement": "recovery of lost weight", "setting": "[1]; 10 μg/ml in drinking water plus 1 μg i.v. daily, weighed daily, FIG. 3", "value": "earlier and more complete recovery of lost weight"}, {"measurement": "bronchoalveolar lavage total cell counts", "setting": "[1]; BAL five days after challenge, FIG. 4A", "value": "significant suppression of total cell counts"}, {"measurement": "airway neutrophilia (BAL neutrophils)", "setting": "[1]; BAL five days after challenge, FIG. 4B", "value": "significant inhibition of airway neutrophilia"}, {"measurement": "airway lymphocyte counts", "setting": "[1]; BAL five days after challenge, FIG. 4C", "value": "significant increase in airway lymphocyte counts"}, {"measurement": "percentage of airway macrophages", "setting": "[1]; BAL five days after challenge, FIG. 4D", "value": "increase in the percentage of airway macrophages"}, {"measurement": "neutrophil/lymphocyte ratio in the airway", "setting": "[1]; BAL five days after challenge, FIG. 4E", "value": "significant decrease"}, {"measurement": "neutrophil/macrophage ratio in the airway", "setting": "[1]; BAL five days after challenge, FIG. 4F", "value": "significant decrease"}, {"measurement": "whole lung P. aeruginosa burden", "setting": "[1]; lungs harvested five days after challenge, quantitative microbiological techniques, FIG. 6", "value": "decrease in lung bacterial burden"}, {"measurement": "whole lung myeloperoxidase levels (neutrophil accumulation in the lung parenchyma)", "setting": "[1]; lungs harvested five days after challenge, FIG. 5", "value": "significantly reduced neutrophil accumulation in the lung parenchyma"}, {"measurement": "P. aeruginosa-mediated IL-8 secretion", "setting": "[2]", "value": "inhibits"}, {"measurement": "P. aeruginosa-mediated IL-8 secretion", "setting": "[2]; listed as LXA4 analogue", "value": "significantly inhibits"}]}
